Test results taken from ChEMBL document CHEMBL1130516, “Synthesis and biological activity of novel penem sulfoxides and sulfones” (Bioorg Med Chem Lett, 1997).

How the values were obtained:
[1] = target: Beta-lactamase (Enterobacter cloacae, UniProt P05364); assay: Compound was evaluated for beta-lactamase inhibition activity of Enterobacter cloacae after 15 min of pre-incubation with the enzyme at 37 degree C
[2] = tested on: Enterobacter cloacae; assay: Inhibitory zone of compound at 30 ug against Enterobacter cloacae was determined; format: functional
[3] = tested on: Pseudomonas aeruginosa; assay: Inhibitory zone of compound at 30 ug against Pseudomonas aeruginosa was determined; format: functional
[4] = tested on: Staphylococcus; assay: Inhibitory zone of compound at 30 ug against Staphylococcus innsbruck was determined; format: functional
[5] = tested on: Escherichia coli; assay: Inhibitory zone of compound at 30 ug against Escherichia coli TEM was determined; format: functional
[6] = target: T1, Beta-lactamase TEM (Escherichia coli, UniProt P62593); assay: (§1) Compound was evaluated for beta-lactamase inhibition activity of Escherichia coli after 15 min of pre-incubation with the enzyme at 37 degree C
T1 sequence (P62593 whole entry): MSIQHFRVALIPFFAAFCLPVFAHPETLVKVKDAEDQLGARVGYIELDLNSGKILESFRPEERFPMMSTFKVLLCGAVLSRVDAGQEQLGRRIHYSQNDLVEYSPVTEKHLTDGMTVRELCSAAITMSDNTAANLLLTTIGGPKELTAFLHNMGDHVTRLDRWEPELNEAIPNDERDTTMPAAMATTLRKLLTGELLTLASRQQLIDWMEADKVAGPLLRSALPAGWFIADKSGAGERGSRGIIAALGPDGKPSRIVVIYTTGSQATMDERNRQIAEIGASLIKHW

[7] = Compound was evaluated for relative hydrolysis rate; format: ADME
[8] = tested on: Staphylococcus aureus; assay: Inhibitory zone of compound at 30 ug against Staphylococcus aureus 1104 was determined; format: functional
[9] = Compound was evaluated for half life of hydrolysis in phosphate buffer at pH 7.4 and 37 degree C; format: ADME
[10] = tested on: Escherichia coli; assay: Inhibitory zone of compound at 30 ug against Escherichia coli 1103 was determined; format: functional
[11] = tested on: Enterococcus; assay: Inhibitory zone of compound at 30 ug against Enterococcus was determined; format: functional
[12] = tested on: Staphylococcus; assay: Inhibitory zone of compound at 30 ug against Staphylococcus 25768 was determined; format: functional
[13] = target: T1, Beta-lactamase TEM; assay: as §1; set-up: species or system Escherichia cloacae

Chain of Beta-lactamase (P05364 whole entry): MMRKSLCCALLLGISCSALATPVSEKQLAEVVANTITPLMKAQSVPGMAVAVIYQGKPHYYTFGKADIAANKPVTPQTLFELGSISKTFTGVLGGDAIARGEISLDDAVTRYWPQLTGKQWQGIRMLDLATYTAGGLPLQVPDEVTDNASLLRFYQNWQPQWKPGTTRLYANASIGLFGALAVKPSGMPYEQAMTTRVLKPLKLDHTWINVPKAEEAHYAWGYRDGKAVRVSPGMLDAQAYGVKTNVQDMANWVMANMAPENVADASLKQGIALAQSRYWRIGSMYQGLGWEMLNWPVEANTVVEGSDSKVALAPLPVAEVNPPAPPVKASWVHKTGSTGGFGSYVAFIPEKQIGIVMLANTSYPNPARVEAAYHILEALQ

SMILES | IC50 [1] | Inhibition zone [2] | Inhibition zone [3] | Inhibition zone [4] | Inhibition zone [5] | IC50 [6] | Krel [7] | Inhibition zone [8] | half-life [9] | Inhibition zone [10] | Inhibition zone [11] | Inhibition zone [12] | IC50 [13]
C[C@@H](O)[C@H]1C(=O)N2C(C(=O)[O-])=C(C(C)(C)C)S(=O)(=O)[C@H]12.[K+] | 0.004 µM | 0 mm | 0 mm | 0 mm | 0 mm | 10 µM | 720 | 0 mm | 18 h | 0 mm | 0 mm | 0 mm | –
C[C@@H](O)[C@H]1C(=O)N2C(C(=O)[O-])=C(C(C)(C)C)S[C@H]12.[K+] | 0.3 µM | 10 mm | 0 mm | 0 mm | 9 mm | – | 0.6 | 36 mm | 16 h | 18 mm | 11 mm | 31 mm | 50 µM
N[C@@H](C(=O)N[C@@H]1C(=O)N2C(C(=O)O)=C(Cl)CS[C@H]12)c1ccccc1.O [CEFACLOR] | – | 7 mm | 0 mm | 12 mm | 15 mm | – | – | 32 mm | – | 25 mm | 15 mm | 13 mm | –
CC(C)(C)C1=C(C(=O)[O-])N2C(=O)C[C@H]2S1.[K+] | – | 0 mm | 0 mm | 0 mm | 0 mm | – | 1 | 40 mm | 9 h | 11 mm | 0 mm | 0 mm | –
C[C@@H](O)[C@H]1C(=O)N2C(C(=O)[O-])=C(C(C)(C)C)[S+]([O-])[C@H]12.[K+] (some centres undefined) | 0.3 µM | 7 mm | 0 mm | 0 mm | 13 mm | 90 µM | 33 | 30 mm | 6.5 h | 20 mm | 0 mm | 24 mm | –
CC(C)(C)C1=C(C(=O)[O-])N2C(=O)C[C@H]2[S+]1[O-].[K+] (some centres undefined) | – | 0 mm | 0 mm | 0 mm | 0 mm | – | 39 | 36 mm | 5.5 h | 10 mm | 0 mm | 8 mm | –
